Target: T1, SOX18 (GFP-SOX18 / SOX18-Cherry-myc homodimer) (Homo sapiens, UniProt P35713)
T1 construct: full-length human SOX18, synthetic gene; N-terminal GFP-tagged and C-terminal Cherry-cMyc-tagged copies co-expressed cell-free in Leishmania tarentolae extract, not purified; homodimer
T1 sequence (P35713 1-384): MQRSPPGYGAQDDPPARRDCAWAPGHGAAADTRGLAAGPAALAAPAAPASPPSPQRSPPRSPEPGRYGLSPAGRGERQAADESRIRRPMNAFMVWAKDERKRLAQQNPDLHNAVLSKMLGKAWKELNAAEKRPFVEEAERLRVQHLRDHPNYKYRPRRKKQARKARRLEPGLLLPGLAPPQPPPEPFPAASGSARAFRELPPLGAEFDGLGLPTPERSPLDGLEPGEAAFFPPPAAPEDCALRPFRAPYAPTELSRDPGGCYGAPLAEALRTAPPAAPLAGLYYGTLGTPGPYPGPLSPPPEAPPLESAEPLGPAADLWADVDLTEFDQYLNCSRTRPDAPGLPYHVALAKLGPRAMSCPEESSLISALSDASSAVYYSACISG
Assay: AlphaScreen disruption of SOX18-SOX18 homodimer in cell-free lysate
Format: biochemical
Settings: protein-protein interaction disruption; no IR5 DNA; buffer B (25 mM HEPES, 50 mM NaCl, 0.001% NP40, 0.001% casein); 1 h; 0.7% DMSO

IC50: ~3000 nM
Compound: O=C(O)c1c(O)cccc1CCc1ccc2ccccc2c1 [Sm4]
